Experiments:
Experiment in all cases: 96-well microtiter fungal growth assay;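 for Mean percent fungal growth inhibition of Botrytis cinerea: percent relative to untreated positive growth controls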;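 for Mean percent fungal growth inhibition of Colletotrichum acutatum: percent relative to untreated positive growth controls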;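 for Mean percent fungal growth inhibition of Colletotrichum fragariae: percent relative to untreated positive growth controls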;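 for Mean percent fungal growth inhibition of Colletotrichum gloeosporoides: percent relative to untreated positive growth controls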;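 for Mean percent fungal growth inhibition of Fusarium oxysporum: percent relative to untreated positive growth controls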;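 for Mean percent fungal growth inhibition of Phomopsis viticola: percent relative to untreated positive growth controls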
Format in all cases: cell-based
Botrytis cinerea = tested on: Botrytis cinerea;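 note: percent relative to untreated positive growth controls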
Text: (§1) Pathogen collection. Isolates of Colletotrichum acutatum Simmonds, Colletotrichum fragariae Brooks, and Colletotrichum gloeosporioides (Penz.) Penz. & Sacc. in Penz. were obtained from B. J. Smith, USDA, ARS, Small Fruit Research Station, Poplarville, Mass. Colletotrichum fragariae (isolate CF63), C. acutatum (isolate CAGoff), and C. gloeosporioides (isolate CG162) were used for all pathogen and bioautography studies. Isolate CF63 is one of the most virulent isolates at infecting strawberry plants and inducing both crown and fruit rot (Smith and Black, 1990). CF63, CAGoff, and CG162 were used as standard test isolates because of our extensive knowledge of these isolates and their known fungicide sensitivity profiles in both bioautography and microtiter formats. The three Colletotrichum species were isolated from strawberry (Fragaria xananassa Duchesne). Botrytis cinerea Pers.:Fr, was isolated from commercial grape (Vitis vinifera L.) and Fusarium oxysporum Schlechtend:Fr from orchid (Cynoches sp.) by David E. Wedge, USDA ARS Natural Products Utilization Research Unit. Phomopsis viticola (Sacc.) and P. obscurans (Ellis & Everh.) Sutton were from Mike A. Ellis, Ohio State University, Wooster, Ohio. Fungi were grown on potato-dextrose agar (PDA, Difco, Detroit Mich.) in 9 cm petri dishes and incubated in a growth chamber at 24±2° C. and under cool-white fluorescent lights ([…]·m^−2·sec^−1 light) with 12-h photoperiod.
(§2) Inoculum preparation. Conidia were harvested from 7–10 day-old cultures by flooding plates with 5 mL of sterile distilled water and dislodging conidia by softly brushing the colonies with an L-shaped glass rod. Conidial suspensions were filtered through sterile miracloth (Calbiochem-Novabiochem Corp., La Jolla Calif.) to remove mycelia. Conidia concentrations were determined photometrically, from a standard curve based on the absorbance at 625 nm and suspensions were then adjusted with sterile distilled water to a concentration of 1.0×10^6 conidia/mL.
(§3) Microtiter assay. A standardized 96-well microtiter plate assay developed for discovery of natural product fungicidal agents. A 96-well microtiter assay was used to determine sensitivity of B. cinerea, C. acutatum, C. fragariae, C. gloeosporioides, F. oxysporum, Phomopsis viticola, and P. obscurans to the various antifungal agents in comparison with known fungicidal standards. Vinclozolin, captan, and thiabendazole, which represent three different modes of action, were used as standards in this experiment. Each fungus was challenged in a dose-response format using test compounds where the final treatment concentrations were 0.3, 3.0 and 30.0 μM. Microtiter plates (Nunc MicroWell, untreated; Roskilde, Denmark) were covered with a plastic lid and incubated in a growth chamber at 24±1 C and 12 h photoperiod under 60±5 μmol light. Growth was then evaluated by measuring absorbance of each well at 620 nm using a microplate photometer (Packard Spectra Count, Packard Instrument Co., Downers Grove, Ill.).
(§4) Microbioassay Experimental Design. Chemical sensitivity of each fungus 96-well microtiter assay is used to determine sensitivity of B. cinerea, C. acutatum, C. fragariae, C. gloeosporioides, F. oxysporum, Phomopsis viticola, and P. obscurans. Each chemical is evaluated in duplicate at each dose (0.3, 3.0 and 30.0 μM) and repeated twice in time. Sixteen wells containing broth and inoculum serves as positive controls, eight wells containing solvent at the appropriate concentration and broth without inoculum are used as negative controls. Mean absorbance values and standard errors is used to evaluate fungal growth at 48 hrs and 72 hrs except for P. obscurans and P. viticola the data are recorded at 120 hrs. […] Treatments are arranged as a split-plot design replicated twice in time. Whole-plots were fungal isolates and sub-plots are chemicals. Each dose level and response time is analyzed separately. […]

Colletotrichum acutatum = tested on: Colletotrichum acutatum;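 note: percent relative to untreated positive growth controls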
Text: as §1, §2, §3, §4

Colletotrichum fragariae = tested on: Colletotrichum fragariae;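 note: percent relative to untreated positive growth controls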
Text: as §1, §2, §3, §4

[1] = tested on: Colletotrichum gloeosporioides;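 note: percent relative to untreated positive growth controls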
Text: as §1, §2, §3, §4

Fusarium oxysporum = tested on: Fusarium oxysporum;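 note: percent relative to untreated positive growth controls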
Text: as §1, §2, §3, §4

Phomopsis obscurans = tested on: Phomopsis obscurans
Text: as §1, §2, §3
(§5) Microbioassay Experimental Design. Chemical sensitivity of each fungus 96-well microtiter assay is used to determine sensitivity of B. cinerea, C. acutatum, C. fragariae, C. gloeosporioides, F. oxysporum, Phomopsis viticola, and P. obscurans. Each chemical is evaluated in duplicate at each dose (0.3, 3.0 and 30.0 μM) and repeated twice in time. Sixteen wells containing broth and inoculum serves as positive controls, eight wells containing solvent at the appropriate concentration and broth without inoculum are used as negative controls. […] Treatments are arranged as a split-plot design replicated twice in time. Whole-plots were fungal isolates and sub-plots are chemicals. Each dose level and response time is analyzed separately. The SAS system's analysis of variance procedure (Statistical Analysis System, Cary, N.C.) is used to identify significant factors and Fisher's protected LSD is used to separate means.

Phomopsis viticola = tested on: Phomopsis viticola;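 note: percent relative to untreated positive growth controls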
Text: as §1, §2, §3, §5

`Cc1cc(C2CC2)nc(Nc2ccccc2)n1` [Cyprodinil] was tested, and the “Mean percent fungal growth inhibition of Botrytis cinerea” value (Botrytis cinerea; 0.3 μm, 48 hrs) was −96.6 ± 2.3%, the “Mean percent fungal growth inhibition of Botrytis cinerea” value (Botrytis cinerea; 0.3 μm, 72 hrs) was 26.56 ± 14.1% and the “Mean percent fungal growth inhibition of Botrytis cinerea” value (Botrytis cinerea; 3.0 μm, 48 hrs) was −90.2 ± 3.3%. For the same compound, the “Mean percent fungal growth inhibition of Botrytis cinerea” value (Botrytis cinerea; 3.0 μm, 72 hrs) was −81.4 ± 9.2%, the “Mean percent fungal growth inhibition of Botrytis cinerea” value (Botrytis cinerea; 30 μm, 48 hrs) was −94.2 ± 2.1% and the “Mean percent fungal growth inhibition of Botrytis cinerea” value (Botrytis cinerea; 30 μm, 72 hrs) was −96.2 ± 1.5%. The “Mean percent fungal growth inhibition of Colletotrichum acutatum” value (Colletotrichum acutatum; 0.3 μm, 48 hrs) was −102.2 ± 0.9%, the “Mean percent fungal growth inhibition of Colletotrichum acutatum” value (Colletotrichum acutatum; 0.3 μm, 72 hrs) was −94.5 ± 4.4% and the “Mean percent fungal growth inhibition of Colletotrichum acutatum” value (Colletotrichum acutatum; 3.0 μm, 48 hrs) was −98.1 ± 0.7%. For the same compound, the “Mean percent fungal growth inhibition of Colletotrichum acutatum” value (Colletotrichum acutatum; 3.0 μm, 72 hrs) was −98.3 ± 0.6%, the “Mean percent fungal growth inhibition of Colletotrichum acutatum” value (Colletotrichum acutatum; 30 μm, 48 hrs) was −99.7 ± 0.7% and the “Mean percent fungal growth inhibition of Colletotrichum acutatum” value (Colletotrichum acutatum; 30 μm, 72 hrs) was −99.0 ± 0.3%. The “Mean percent fungal growth inhibition of Colletotrichum fragariae” value (Colletotrichum fragariae; 0.3 μm, 48 hrs) was −94.1 ± 1.4%, the “Mean percent fungal growth inhibition of Colletotrichum fragariae” value (Colletotrichum fragariae; 0.3 μm, 72 hrs) was −54.1 ± 19.3% and the “Mean percent fungal growth inhibition of Colletotrichum fragariae” value (Colletotrichum fragariae; 3.0 μm, 48 hrs) was −89.0 ± 1.6%. The “Mean percent fungal growth inhibition of Colletotrichum fragariae” value (Colletotrichum fragariae; 3.0 μm, 72 hrs) was −76.7 ± 4.7%, the “Mean percent fungal growth inhibition of Colletotrichum fragariae” value (Colletotrichum fragariae; 30 μm, 48 hrs) was −95.5 ± 0.5% and the “Mean percent fungal growth inhibition of Colletotrichum fragariae” value (Colletotrichum fragariae; 30 μm, 72 hrs) was −92.5 ± 3.2%. The “Mean percent fungal growth inhibition of Colletotrichum gloeosporoides” value ([1]; 0.3 μm, 48 hrs) was −89.9 ± 2.7%, the “Mean percent fungal growth inhibition of Colletotrichum gloeosporoides” value ([1]; 0.3 μm, 72 hrs) was −62.9 ± 9.3% and the “Mean percent fungal growth inhibition of Colletotrichum gloeosporoides” value ([1]; 3.0 μm, 48 hrs) was −85.4 ± 6.6%. For the same compound, the “Mean percent fungal growth inhibition of Colletotrichum gloeosporoides” value ([1]; 3.0 μm, 72 hrs) was −76.4 ± 6.3%, the “Mean percent fungal growth inhibition of Colletotrichum gloeosporoides” value ([1]; 30 μm, 48 hrs) was −95.1 ± 1.0% and the “Mean percent fungal growth inhibition of Colletotrichum gloeosporoides” value ([1]; 30 μm, 72 hrs) was −91.1 ± 1.6%. The “Mean percent fungal growth inhibition of Fusarium oxysporum” value (Fusarium oxysporum; 0.3 μm, 48 hrs) was 16.4 ± 3.9%, the “Mean percent fungal growth inhibition of Fusarium oxysporum” value (Fusarium oxysporum; 0.3 μm, 72 hrs) was 7.9 ± 2.9% and the “Mean percent fungal growth inhibition of Fusarium oxysporum” value (Fusarium oxysporum; 3.0 μm, 48 hrs) was 2.6 ± 2.6%. The “Mean percent fungal growth inhibition of Fusarium oxysporum” value (Fusarium oxysporum; 3.0 μm, 72 hrs) was 1.8 ± 2.7%, the “Mean percent fungal growth inhibition of Fusarium oxysporum” value (Fusarium oxysporum; 30 μm, 48 hrs) was −67.4 ± 4.3% and the “Mean percent fungal growth inhibition of Fusarium oxysporum” value (Fusarium oxysporum; 30 μm, 72 hrs) was −41.5 ± 5.1%. The “Percent change in fungal growth vs control (negative = inhibition)” value (shortened to “Percent change … (negative = inhibition)”) (Phomopsis obscurans; 0.3 μm, 120 hrs) was −51.4 ± 5.9%, the “Percent change … (negative = inhibition)” value (Phomopsis obscurans; 0.3 μm, 144 hrs) was −46.3 ± 6.0% and the “Percent change … (negative = inhibition)” value (Phomopsis obscurans; 3.0 μm, 120 hrs) was −64.5 ± 10.7%. For the same compound, the “Percent change … (negative = inhibition)” value (Phomopsis obscurans; 3.0 μm, 144 hrs) was −72.6 ± 3.9%, the “Percent change … (negative = inhibition)” value (Phomopsis obscurans; 30 μm, 120 hrs) was −86.8 ± 1.3% and the “Percent change … (negative = inhibition)” value (Phomopsis obscurans; 30 μm, 144 hrs) was −81.5 ± 2.5%. The “Mean percent fungal growth inhibition of Phomopsis viticola” value (Phomopsis viticola; 0.3 μm, 120 hrs) was −219 ± 122.1%, the “Mean percent fungal growth inhibition of Phomopsis viticola” value (Phomopsis viticola; 3.0 μm, 120 hrs) was −184.6 ± 87.0% and the “Mean percent fungal growth inhibition of Phomopsis viticola” value (Phomopsis viticola; 3.0 μm, 144 hrs) was 451.7 ± 331.5%. The “Mean percent fungal growth inhibition of Phomopsis viticola” value (Phomopsis viticola; 30 μm, 120 hrs) was −176.2 ± 48.2% and the “Mean percent fungal growth inhibition of Phomopsis viticola” value (Phomopsis viticola; 30 μm, 144 hrs) was 80.4 ± 111.6%.
